Read-outs that look alike come from different tables or passages of the source.
Columns and labels:
[1] = tested on: normotensive dogs; conditions: 0.05%, once daily for 5 days
Experimental: (§1) U.S. Pat. No. 7,091,231 describes the methods used for these in vivo tests.
(§2) Isopropyl 5-(2-(3′,4-difluoro-[1,1′-biphenyl]-3-ylcarboxamido)ethyl)thiophene-2-carboxylate was tested in normotensive dogs at 0.05%, dosing once daily for 5 days. […] This compound was also tested in laser-induced hypertensive monkeys, using one single day dose.
(§3) 2-Hydroxyethyl 5-(2-(3′,4-difluoro-[1,1′-biphenyl]-3-ylcarboxamido)ethyl)thiophene-2-carboxylate was tested in normotensive dogs at 0.05%, dosing once daily for 5 days. […] This compound was also tested in laser-induced hypertensive monkeys, using one single day dose.

[2] = tested on: laser-induced hypertensive monkeys; conditions: 0.05%, one single day dose, maximum at 6 h
Experimental: as §1, §2, §3

[3] = biological target: T1, EP4 (Homo sapiens, UniProt P35408); assay: EP4 flipr functional assay; format: cell-based
Experimental: (§4) Data from running binding and activity studies on the compounds of the invention were carried out as described in U.S. Pat. No. 7,427,685, the contents of which are incorporated herein by reference.

[4] = biological target: T2, EP2 (Homo sapiens, UniProt P43116); assay: EP2 binding
Experimental: as §4

[5] = biological target: T2, EP2; assay: EP2 flipr functional assay; format: cell-based
Experimental: as §4

[6] = biological target: T1, EP4; assay: EP4 binding
Experimental: as §4

[7] = biological target: T3, hEP3A (Homo sapiens, UniProt P43115); assay: Other receptors functional assay, hEP3A; format: cell-based
T3 sequence (P43115 1-390): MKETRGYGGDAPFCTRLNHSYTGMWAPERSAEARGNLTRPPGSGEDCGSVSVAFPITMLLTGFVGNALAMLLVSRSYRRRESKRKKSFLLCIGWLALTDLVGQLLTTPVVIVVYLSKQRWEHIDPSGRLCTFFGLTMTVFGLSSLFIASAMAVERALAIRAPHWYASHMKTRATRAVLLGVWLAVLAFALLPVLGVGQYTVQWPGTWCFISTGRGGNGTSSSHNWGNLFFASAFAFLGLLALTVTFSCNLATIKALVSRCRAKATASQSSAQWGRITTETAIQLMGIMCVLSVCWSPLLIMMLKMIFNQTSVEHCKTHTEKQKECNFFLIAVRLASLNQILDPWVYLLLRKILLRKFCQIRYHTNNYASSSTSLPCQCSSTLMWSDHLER
Experimental: as §4

[8] = biological target: T2, EP2; assay: EP2 cAMP assay; format: cell-based
Experimental: as §4

T1 sequence (P35408 whole entry): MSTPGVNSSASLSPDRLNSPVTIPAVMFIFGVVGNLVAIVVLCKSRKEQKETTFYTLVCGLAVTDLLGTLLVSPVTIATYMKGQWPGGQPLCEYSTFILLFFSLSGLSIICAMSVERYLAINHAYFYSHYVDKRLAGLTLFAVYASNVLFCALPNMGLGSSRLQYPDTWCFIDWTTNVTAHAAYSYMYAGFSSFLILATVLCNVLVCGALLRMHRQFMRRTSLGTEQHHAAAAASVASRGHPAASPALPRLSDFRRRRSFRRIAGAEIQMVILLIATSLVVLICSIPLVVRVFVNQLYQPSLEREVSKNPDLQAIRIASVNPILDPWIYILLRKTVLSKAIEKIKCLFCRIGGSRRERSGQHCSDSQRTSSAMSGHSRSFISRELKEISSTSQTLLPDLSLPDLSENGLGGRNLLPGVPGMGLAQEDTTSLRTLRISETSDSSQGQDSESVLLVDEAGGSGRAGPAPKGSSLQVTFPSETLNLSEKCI
T2 sequence (P43116 whole entry): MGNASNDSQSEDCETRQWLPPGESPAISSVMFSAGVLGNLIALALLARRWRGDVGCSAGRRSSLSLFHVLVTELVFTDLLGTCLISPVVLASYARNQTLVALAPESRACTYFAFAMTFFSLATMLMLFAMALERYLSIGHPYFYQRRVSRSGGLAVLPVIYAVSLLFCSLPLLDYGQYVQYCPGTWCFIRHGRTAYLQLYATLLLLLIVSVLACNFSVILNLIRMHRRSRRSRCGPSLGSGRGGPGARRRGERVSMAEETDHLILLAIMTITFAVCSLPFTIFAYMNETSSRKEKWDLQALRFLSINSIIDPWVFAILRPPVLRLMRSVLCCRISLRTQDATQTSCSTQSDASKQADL

SMILES	maximum ocular surface hyperemia (OSH) score ([1]; maximum at 28 h)	maximum intraocular pressure (IOP) decrease from baseline ([1]; maximum at 78 h) [mmHg]	maximum intraocular pressure (IOP) decrease from baseline (percent) ([1]; maximum at 78 h) [%]	maximum IOP decrease from baseline [2] [mmHg]	maximum IOP decrease from baseline (percent) [2] [%]	EC50 [3] [µM]	Ki [4] [µM]	EC50 [5] [µM]	Ki [6] [µM]	EC50 [7] [nM]	EC50 [8] [µM]	maximum intraocular pressure (IOP) decrease from baseline ([1]; maximum at 52 h) [mmHg]	maximum intraocular pressure (IOP) decrease from baseline (percent) ([1]; maximum at 52 h) [%]	maximum ocular surface hyperemia (OSH) score ([1]; maximum at 54 h)
CC(C)OC(=O)c1ccc(CCNC(=O)c2cc(-c3cccc(F)c3)ccc2F)s1 [Isopropyl 5-(2-(3′,4-difluoro-[1,1′-biphenyl]-3-ylcarboxamido)ethyl)thiophene-2-carboxylate]	0.8	5.2	32	6.9	19	–	–	–	–	–	–	–	–	–
O=C(NCCCc1ccc(C(=O)O)s1)c1cc(F)cc(-c2cccc(F)c2)c1 [Compound 7, 5-(3-(3′,5-Difluoro-[1,1′-biphenyl]-3-ylcarboxamido)propyl)thiophene-2-carboxylic acid]	–	–	–	–	–	> 10	0.126	0.037	0.814	1420	0.005	–	–	–
O=C(O)c1ccc(CNC(=O)c2cc(-c3cccc(F)c3)ccc2F)s1 [Compound 2, 5-((3′,4-Difluoro-[1,1′-biphenyl]-3-ylcarboxamido)methyl)thiophene-2-carboxylic acid]	–	–	–	–	–	> 10	0.631	> 10	0.845	–	> 10	–	–	–
O=C(OCCO)c1ccc(CCNC(=O)c2cc(-c3cccc(F)c3)ccc2F)s1 [2-Hydroxyethyl 5-(2-(3′,4-difluoro-[1,1′-biphenyl]-3-ylcarboxamido)ethyl)thiophene-2-carboxylate]	–	–	–	13.1	31	–	–	–	–	–	–	6.6	50	1.6
O=C(O)c1ccc(CCNC(=O)c2cc(-c3cccc(F)c3)ccc2F)s1 [Compound 1, 5-(2-(3′,4-Difluoro-[1,1′-biphenyl]-3-ylcarboxamido)ethyl)thiophene-2-carboxylic acid]	–	–	–	–	–	5.14	0.063	0.049	0.648	8900	0.002	–	–	–
O=C(O)c1ccc(CCCNC(=O)c2cc(-c3cccc(F)c3)ccc2F)s1 [Compound 3, 5-(3-(3′,4-Difluoro-[1,1′-biphenyl]-3-ylcarboxamido)propyl)thiophene-2-carboxylic acid]	–	–	–	–	–	> 10	0.177	0.031	1.48	3290	0.005	–	–	–
O=C(O)c1ccc(CCCCNC(=O)c2cc(-c3cccc(F)c3)ccc2F)s1 [Compound 4, 5-(4-(3′,4-Difluoro-[1,1′-biphenyl]-3-ylcarboxamido)butyl)thiophene-2-carboxylic acid]	–	–	–	–	–	> 10	6.88	> 10	8.64	–	> 10	–	–	–
O=C(NCCc1ccc(C(=O)O)s1)c1cc(F)cc(-c2cccc(F)c2)c1 [Compound 6, 5-(2-(3′,5-Difluoro-[1,1′-biphenyl]-3-ylcarboxamido)ethyl)thiophene-2-carboxylic acid]	–	–	–	–	–	4.44	0.122	0.011	0.75	4810	0.004	–	–	–
O=C(NCCc1ccc(C(=O)O)s1)c1cccc(-c2cccc(F)c2)c1 [Compound 5, 5-(2-(3′-Fluoro-[1,1′-biphenyl]-3-ylcarboxamido)ethyl)thiophene-2-carboxylic acid]	–	–	–	–	–	6.02	0.15	0.026	0.739	> 10000	0.008	–	–	–
